Measured values reported in patent publication US9682047B2, “Augmentation of oncology immunotherapies by pterostilbene containing compositions” (THERAPEUTIC SOLUTIONS INTERNATIONAL, INC., priority 2015, dated 2017).

Assays:
IFN-gamma = experiment: Mitogen (Concanavalin A) induced IFN-gamma production by splenocyte mononuclear cells of treated mice, ELISA; assay type: in vivo; details: splenocytes of B16-bearing mice treated as in Example 3, Concanavalin A 5 μg/mL, saline control about 200 ng/mL, FIG. 2
Experimental: FIG. 2 illustrates the stimulation of mitogen induced IFN-gamma production by pterostilbene in mice. Mice were treated as described in FIG. 1 (from left to right: saline; 25 μg/kg pterostilbene; 500 IU/mouse IL-2; and a combination of IL-2 and pterostilbene at the indicated concentrations). Mononuclear cells were obtained and plated in 96-well plates and treated with Concanavalin A at 5 μg/mL. IFN-gamma was assessed by ELISA. The y-axis is expressed as ng/mL.
Mice from Example 3 where euthanized by cervical dislocation and spleens were excised in a sterile manner. Splenocyte mononuclear cells were obtained by hypotonic lysis and washed 3 times in PBS. Mononuclear cells were plated in 96 well plates and treated with Concanavalin A at 5 μg/mL. Interferon gamma was assessed by ELISA and expressed as ng/mL. […] In contrast, mononuclear cells of mice treated with pterostilbene alone expressed about 900 ng/mL IFN-gamma, and mononuclear cells of mice treated with the combination of pterostilbene and IL-2 expressed about 1500 ng/mL IFN-gamma. As disclosed herein, enhanced expression of IFN-gamma elicits an immune response.

[1] = cited from earlier work
[2] = in vivo; cited from earlier work
[3] = in vivo; cited from earlier work; remark: listed apart in the source

Structure (SMILES)	IFN-gamma expressed by mononuclear cells (IFN-gamma)	solubility in aqueous solution [1]	half-life [2]	systemic bioavailability [3]
COc1cc(/C=C/c2ccc(O)cc2)cc(OC)c1 [pterostilbene, trans-3,5-dimethoxy-4′-hydroxy-trans-stilbene]	about 900 ng/mL	sparingly soluble	approximately 2 hr	
Oc1ccc(/C=C/c2cc(O)cc(O)c2)cc1 [t-RESV, trans-3,5,4′-trihydroxystilbene]				low
